Reference: patent publication US20200023001A1, “GlycoFix (Structurally And Functionally Repaired Endothelial Glycocalyx)” (Northeastern University, priority 2018, published 2020)
Where “and” joins values, the source holds several entries; their conditions need not be identical. Identical values can stand only once.

System: Cx43 at RFPEC borders
Experiment: Cx43 expression at EC borders, immunostaining and confocal microscopy
Format: cell-based, rat
Procedure: Cell Culture. Rat fat pad ECs (RFPEC) at passages 20 to 39 were offspring of cells isolated from rat epididymal fat pad and provided by Dr. Mia Thi of Albert Einstein College of Medicine (Bronx, N.Y.). […] The RFPECs are immortalized, making it possible to use late passages. RFPEC were seeded on 12-14-mm diameter and 0.13-0.17-mm thick glass coverslips at a seeding density of 15,000-20,000 cells/cm^2. Cells were cultured in Dulbecco's Modified Eagle Medium (DMEM, Invitrogen, USA) with 1% penicillin-streptomycin (PS) and 10% fetal bovine serum (FBS, Gibco Life Technologies). Cells were maintained in humidity at 37° C. and 5% CO2. RFPECs reached full confluence in 3 days.
Cultured RFPECs produce thick and robust GCX in this time period. At 3 days post-seeding the RFPECs' culture medium was supplemented with 1% BSA in place of FBS to stabilize the GCX during preservation and immunolabeling (described below). For enzyme treatment experiments, 25 micro-international units per milliliter (μIU/ml) of heparinase III (Hep III; IBEX, Canada) were added to BSA-containing culture media for 2 hours to degrade HS from the GCX [46]. HepIII was washed out, and the wash-out was followed by a 16-hour incubation of RFPECs in regular BSA-containing media. In self-recovery experiments, RFPEC GCX was left to recover for 24 hours after enzyme degradation. The time frame was chosen in accordance with the 20-hour time period that is required for HS restoration to occur on the surface of ECs. For HS recovery experiments, exogenous HS and/or S1P were applied for 16 hours to accommodate the communication test as an assessment of functional glycocalyx recovery. […] After HS was degraded with HepIII, it was replaced by a 16-hour feeding of RFPECs with 59 μg/ml exogenous porcine mucosal HS (Celsus, Cincinnati, Ohio), based on published serum concentration of HS [43]. In sphingosine-1-phosphate experiments, culture media containing enzyme was substituted for media containing either 10 μM of S1P (Sigma-Aldrich) or a combination of 59 μg/ml of HS and 10 μM of S1P for 16 hours after enzyme degradation.
As specified by the manufacturer, the HS antibody reacts with many types of heparan sulfate. The reactivity of the HS antibody is abolished after treatment with Hep III, indicating antibody specificity. For secondary detection of HS, Alexa Flour 488 conjugated goat anti-mouse IgG/IgM (H+L; Life Technologies) secondary antibody was used. RFPECs to be processed for connexin 43 (Cx43) were fixed in 4% paraformaldehyde, permeabilized in 0.2% Triton X-100 (Fisher), and blocked in 5% goat serum combined with 0.2% Triton X-100. Connexin 43 staining was performed overnight at 4° C. with 1:100 mouse monoclonal Cx43 antibody (Millipore). […] Secondary Cx43 detection was done with Alexa Flour 488 conjugated goat anti-mouse IgG. […] These controls confirmed that the staining observed in the RFPECs is not an artefact.
Confocal immunofluorescence microscopy imaging and analysis. Alexa Fluor 488 fluorescent RFPECs were mounted with Vectashield containing DAPI (Vector Labs) and imaged with a Zeiss LSM 700 laser scanning confocal microscope. HS and Cx43 were imaged at 63× magnification (oil objective) and 40× magnification (oil objective), respectively. Lasers with excitation wavelengths of 490 nm (for HS or Cx43) and 350 nm (for DAPI) were used to obtain XY-plane slices. Laser gain and transmission were kept below fluorophore saturation levels. Confocal slice intervals were 0.2 μm for HS and 0.7 μm for Cx43. […]

Substance: heparan sulfate [HS]
- Cx43 distribution along the perimeter of the cells (RFPEC, Hep III, then 16 h with or without 59 μg/ml HS and/or 10 μM S1P, mean±SEM): 46% and 46.45±4.21%
- Cx43 distribution/expression, result in words (FIG. 3 legend) (after Hep III, HS 59 μg/ml, S1P 10 μM): partially restored
- Cx43 recovery at cell borders, % of baseline conditions (treatment after enzymatic HS degradation): approximately 80%
